Assay results from US20230346281A1, “Fully Printed Electrode Biological Interface” (Early Charm Ventures, priority 2022, published 2023).

Test system: HepG2 hepatocytes tissue layers
Assay: Live cell viability / CEIS recordings in the presence of a cytotoxic agent (EtOH)
Type: cell-based, human
Conditions: 12 hour exposure to EtOH (70% final); HEPG2 2 million cells/mL with PEG-PLL (1:10) hydrogel
Procedure: A toxicological agent, Ethanol (EtOH) was used as a clinically relevant cytotoxic agent for the HepG2 hepatocytes tissue layers, HEPG2 (2 million cells/mL) with PEG-PLL (1:10) hydrogel. CEIS recordings were obtained at 1 hour and 24 hours post deposition with and without the cytoxic agent, Table 3. A final CEIS recording was obtained from these cells following a 12 hour exposure to EtOH (70% final). A marked increase in amplitude with additional recovery time post deposition (1 vs 24 hours).

With `CCO` [EtOH, Ethanol] the “amplitude of CEIS recordings” value was “increased the observed amplitude of CEIS recordings”.
